Legend:
Sirt3 [1] = target: T1, Sirt3 (Homo sapiens, UniProt Q9NTG7); test: Sirt3-dependent deacetylation of a panel of eleven acetylated peptides; format: biochemical
T1 sequence (Q9NTG7 114-380): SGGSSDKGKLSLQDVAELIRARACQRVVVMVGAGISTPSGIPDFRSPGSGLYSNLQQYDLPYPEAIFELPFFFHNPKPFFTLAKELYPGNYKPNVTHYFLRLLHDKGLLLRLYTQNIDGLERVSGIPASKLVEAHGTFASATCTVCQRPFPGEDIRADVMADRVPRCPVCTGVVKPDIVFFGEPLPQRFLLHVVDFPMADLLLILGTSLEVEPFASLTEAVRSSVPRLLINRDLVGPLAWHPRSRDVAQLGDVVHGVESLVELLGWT

Sirt3 [2] = target: T2, Sirt3 (Homo sapiens, UniProt Q9NTG7); test: Cellular SIRT3 deacetylase activity assay; format: cell-based; conditions: MDA-MB-231 cells, 50 and 100 μM, 3 h
T2 sequence (Q9NTG7 1-399): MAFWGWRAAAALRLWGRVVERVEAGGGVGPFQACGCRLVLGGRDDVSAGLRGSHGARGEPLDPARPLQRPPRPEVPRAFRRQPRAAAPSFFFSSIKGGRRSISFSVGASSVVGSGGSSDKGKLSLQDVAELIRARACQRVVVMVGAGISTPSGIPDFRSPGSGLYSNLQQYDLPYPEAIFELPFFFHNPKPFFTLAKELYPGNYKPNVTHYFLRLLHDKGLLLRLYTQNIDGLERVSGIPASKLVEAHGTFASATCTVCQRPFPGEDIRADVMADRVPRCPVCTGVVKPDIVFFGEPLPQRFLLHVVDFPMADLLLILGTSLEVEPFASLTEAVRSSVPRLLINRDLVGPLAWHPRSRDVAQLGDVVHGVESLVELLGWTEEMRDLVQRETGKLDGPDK

Sirt6 = Sirt6 (Homo sapiens, UniProt Q8N6T7); test: Sirt6 activity test; format: biochemical; conditions: 100 μM compound
Sirt4 = target: T3, Sirt4 (Homo sapiens, UniProt Q9Y6E7); test: Sirt4 activity test; format: biochemical; conditions: 100 μM compound
T3 sequence (Q9Y6E7 29-314): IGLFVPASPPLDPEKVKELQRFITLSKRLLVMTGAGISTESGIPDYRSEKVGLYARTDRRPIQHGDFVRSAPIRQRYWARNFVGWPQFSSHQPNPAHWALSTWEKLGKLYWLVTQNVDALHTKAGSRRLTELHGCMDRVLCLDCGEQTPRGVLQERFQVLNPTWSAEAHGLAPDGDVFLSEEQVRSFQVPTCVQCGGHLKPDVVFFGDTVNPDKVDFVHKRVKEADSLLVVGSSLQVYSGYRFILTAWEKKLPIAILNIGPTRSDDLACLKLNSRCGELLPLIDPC

Sirt3 [3] = target: T1, Sirt3; test: Microscale thermophoresis binding to Sirt3
Sirt2 = target: T4, Sirt2 (Homo sapiens, UniProt Q8IXJ6); test: Coupled enzymatic deacetylation assay, Sirt2 with α-tubulin-acK25 peptide; format: biochemical; conditions: coupled assay, 10 and 100 μM compound
T4 sequence (Q8IXJ6 43-356): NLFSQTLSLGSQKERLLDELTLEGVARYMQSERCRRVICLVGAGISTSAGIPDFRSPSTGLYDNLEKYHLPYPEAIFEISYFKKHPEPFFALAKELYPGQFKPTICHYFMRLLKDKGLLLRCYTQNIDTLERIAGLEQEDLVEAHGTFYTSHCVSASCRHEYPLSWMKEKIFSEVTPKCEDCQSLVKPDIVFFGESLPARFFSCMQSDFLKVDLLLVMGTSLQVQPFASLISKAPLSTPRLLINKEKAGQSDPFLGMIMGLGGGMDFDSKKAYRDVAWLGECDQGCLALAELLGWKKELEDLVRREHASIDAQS

Sirt3 [4] = target: T1, Sirt3; test: Coupled enzymatic deacetylation assay, Sirt3 with ACS2-acK642 peptide; format: biochemical
Sirt1 = target: T5, Sirt1 (Homo sapiens, UniProt Q96EB6); test: Coupled enzymatic deacetylation assay, Sirt1 with p53-acK381 peptide; format: biochemical; conditions: 10 and 100 μM compound
T5 sequence (Q96EB6 1-747): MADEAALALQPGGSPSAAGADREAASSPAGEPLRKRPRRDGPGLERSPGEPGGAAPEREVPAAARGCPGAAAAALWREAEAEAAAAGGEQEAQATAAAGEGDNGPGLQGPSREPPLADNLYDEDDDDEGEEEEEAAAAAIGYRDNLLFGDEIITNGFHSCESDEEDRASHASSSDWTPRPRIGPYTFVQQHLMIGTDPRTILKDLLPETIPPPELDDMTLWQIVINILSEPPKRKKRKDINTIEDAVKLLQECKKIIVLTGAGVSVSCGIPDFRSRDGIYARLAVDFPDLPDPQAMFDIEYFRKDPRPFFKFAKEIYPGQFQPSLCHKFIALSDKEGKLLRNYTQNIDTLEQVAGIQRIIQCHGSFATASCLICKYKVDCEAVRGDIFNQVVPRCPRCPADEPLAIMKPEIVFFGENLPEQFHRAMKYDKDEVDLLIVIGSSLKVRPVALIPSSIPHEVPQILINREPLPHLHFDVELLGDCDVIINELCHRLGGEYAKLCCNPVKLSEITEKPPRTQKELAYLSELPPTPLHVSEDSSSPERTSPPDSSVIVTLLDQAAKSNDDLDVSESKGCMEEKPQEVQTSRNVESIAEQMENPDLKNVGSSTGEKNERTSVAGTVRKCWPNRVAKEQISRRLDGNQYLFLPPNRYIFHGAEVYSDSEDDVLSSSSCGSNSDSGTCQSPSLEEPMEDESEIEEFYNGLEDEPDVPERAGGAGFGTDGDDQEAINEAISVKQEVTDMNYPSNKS

Sirt3 [5] = target: T1, Sirt3; test: MS-based deacetylation assay, Sirt3 with ACS2 peptide; format: biochemical; conditions: 100 μM compound
Sirt5 [6] = target: T6, Sirt5 (Homo sapiens, UniProt Q9NXA8); test: Coupled enzymatic desuccinylation assay, Sirt5 with CPS1-succK537 peptide; format: biochemical
T6 sequence (Q9NXA8 34-302): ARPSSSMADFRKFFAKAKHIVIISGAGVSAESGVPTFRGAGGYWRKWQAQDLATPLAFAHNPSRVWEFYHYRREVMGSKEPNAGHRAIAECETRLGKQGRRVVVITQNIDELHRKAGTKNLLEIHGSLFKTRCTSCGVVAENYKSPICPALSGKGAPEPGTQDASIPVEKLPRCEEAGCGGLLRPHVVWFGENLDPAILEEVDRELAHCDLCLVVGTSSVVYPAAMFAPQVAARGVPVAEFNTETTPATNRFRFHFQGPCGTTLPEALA

Sirt5 [7] = target: T6, Sirt5; test: Microscale thermophoresis binding to Sirt5
GDH acetylation = test: GDH immunoprecipitation and Lys acetylation Western blot, MDA-MB-231 cells; format: cell-based, human; conditions: 50 μM
Sirt5 [8] = target: T6, Sirt5; test: NAD+ titration kinetics of Sirt5; format: biochemical; conditions: in presence of 200 μM compound (without compound 1.6 ± 0.1)
Sirt5 [9] = target: T7, Sirt5 (Homo sapiens, UniProt Q9NXA8); test: PDC deacylation assay: PDHA1 desuccinylation by recombinant Sirt5; format: biochemical; conditions: 100 μM compound, PDHA1 from porcine heart tissue
T7 sequence (Q9NXA8 37-310): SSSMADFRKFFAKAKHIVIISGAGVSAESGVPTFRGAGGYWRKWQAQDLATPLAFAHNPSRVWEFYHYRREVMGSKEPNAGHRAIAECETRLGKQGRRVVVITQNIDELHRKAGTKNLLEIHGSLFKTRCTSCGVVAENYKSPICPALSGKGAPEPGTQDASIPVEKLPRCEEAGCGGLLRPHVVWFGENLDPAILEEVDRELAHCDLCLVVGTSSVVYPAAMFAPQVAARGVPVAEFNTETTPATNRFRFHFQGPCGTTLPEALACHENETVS

MDA-MB-231 cells = test: Ammonia level assay, MDA-MB-231 cells; format: cell-based, human; conditions: 50 μM, 4 and 24 h
glutaminase (GLS) = test: GLS activity assay in MDA-MB-231 cell lysates; format: cell-based, human; conditions: MDA-MB-231 cells, 50 μM, 4 and 24 h
Sirt5 [10] = target: T6, Sirt5; test: MS-based desuccinylation assay, Sirt5 with CPS1-succK537; format: biochemical; conditions: 100 μM compound
GDH = GDH activity assay in MDA-MB-231 cell lysates; format: cell-based, human; conditions: wild-type MDA-MB-231 cells, 50 μM, 4 or 24 h
GOT1 acetylation = GOT1 acetylation Western blot in pancreatic cancer cell lines; format: cell-based

Sirt6, sequence (Q8N6T7 whole entry): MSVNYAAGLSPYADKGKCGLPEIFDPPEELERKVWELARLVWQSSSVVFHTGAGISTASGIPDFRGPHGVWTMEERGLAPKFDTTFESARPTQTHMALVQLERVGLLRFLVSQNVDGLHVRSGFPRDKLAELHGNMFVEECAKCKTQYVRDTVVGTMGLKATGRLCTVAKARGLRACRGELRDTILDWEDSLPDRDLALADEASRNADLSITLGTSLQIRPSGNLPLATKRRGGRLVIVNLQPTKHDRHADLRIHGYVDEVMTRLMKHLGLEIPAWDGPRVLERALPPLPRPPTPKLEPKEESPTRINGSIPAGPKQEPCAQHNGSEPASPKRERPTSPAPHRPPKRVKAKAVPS

`CCOC(=O)C1=CN(C(=O)c2cc(OC)c(OC)c(OC)c2)C=C(C(=O)OCC)C1c1ccccc1` [Compound 31, Diethyl 4-Phenyl-1-(3,4,5-trimethoxybenzoyl)-1,4-dihydropyridine-3,5-dicarboxylate] was tested, and the “Stimulation of Sirt3-dependent deacetylation of all panel substrates” value (Sirt3 [1]; 10 μM compound) was “weakly”, the “Stimulation of Sirt3-dependent deacetylation of all panel substrates” value (Sirt3 [1]; 100 μM compound) was “significantly” and the “FdL deacetylation (Sirt3) activity in cell lysates” value (Sirt3 [2]) was “significant increase in FdL deacetylation activity”. The “Effect on Sirt6” value (Sirt6) was “no significant effects”, the “Effect on Sirt4” value (Sirt4) was “partial Sirt4 inhibition” and the Kd (Sirt3 [3]) was 32 ± 7 µM. For the same compound, the “Effect on Sirt2 activity (in words)” value (Sirt2) was “no significant effects”, the Sirt3 activity (Sirt3 [4]; 100 μM compound) was “more than 400%” and the “Effect on Sirt1 activity (in words)” value (Sirt1) was “no significant effects”. For the same compound, the “Sirt3 activation in MS-based assay” value (Sirt3 [5]) was “activated Sirt3-dependent deacetylation of the ACS2 peptide”, the “Effect on Sirt5 activity (in words)” value (Sirt5 [6]; coupled assay, 10 and 100 μM compound) was “no significant effects” and the Kd (Sirt5 [7]) was 83 ± 19 µM. For the same compound, the “GDH overall Lys acetylation” value (GDH acetylation) was “decreased acetylation levels”.
`CCOC(=O)C1=CN(C(=O)c2ccccc2)C=C(C(=O)OCC)C1c1ccsc1` [Compound 30, Diethyl 1-Benzoyl-4-(thiophen-3-yl)-1,4-dihydropyridine-3,5-dicarboxylate] was tested, and the “Effect on Sirt6” value (Sirt6) was “weak, partial inhibition”, the “Effect on Sirt4” value (Sirt4) was “weak, partial inhibition” and the Kd (Sirt3 [3]) was 138 ± 37 µM. The “Effect on Sirt2 activity (in words)” value (Sirt2) was “no significant effects”, the “Effect on Sirt3 activity (in words)” value (Sirt3 [4]; coupled assay, ACS2 peptide, 10 and 100 μM compound) was “no significant effects” and the “NAD+ kinetics vmax of Sirt5” value (Sirt5 [8]) was 2.3 ± 0.1 nmol/mg/min. For the same compound, the “Sirt5-dependent desuccinylation of PDHA1” value (Sirt5 [9]) was “clearly enhanced”, the Ammonia accumulation (MDA-MB-231 cells) was “blocked ammonia accumulation” and the “Effect on Sirt1 activity (in words)” value (Sirt1) was “no significant effects”. The “GLS activity in cell lysates” value (glutaminase (GLS)) was “decreased GLS activity”, the EC50 (Sirt5 [6]) was roughly 40 µM and the “Sirt5 activation (CPS1-succK537 desuccinylation)” value (Sirt5 [6]; 100 μM compound) was 3- to 3.5 fold. For the same compound, the “Maximum activation of Sirt5” value (Sirt5 [6]; titration, beyond 200 μM compound concentration) was 5 fold, the “Sirt5 activation in MS-based assay” value (Sirt5 [10]) was “confirmed the activation of Sirt5-dependent desuccinylation” and the “GDH activity in cell lysates” value (GDH) was “decreased GDH activity”. For the same compound, the GOT1 acetylation (GOT1 acetylation; S2–013 and Capan1 cell lines, 20 μM, 24 h) was “decrease GOT1 acetylation” and the “Effect on GOT1 acetylation” value (GOT1 acetylation; SIRT5 knockout KPC and KPCS cell lines) was “negligible”.
